Reference: patent US6762180B1, “Substituted indolines which inhibit receptor tyrosine kinases” (Boehringer Ingelheim Pharma KG, priority 1999, dated 2004)
pIC50: −log10 of the molar value.

tested on: not given; assay: not given; conditions: not given

Row | melting point | Compound
1 | 224 °C | COC(=O)c1ccc2c(c1)NC(=O)/C2=C(\Nc1ccc(Cc2ccccc2)cc1)c1ccccc1 [Example 3(60), 3-Z-[1-(4-benzyl-anilino)-1-phenyl-methylene]-6-methoxycarbonyl-2-indolinone]

tested on: Human umbilical endothelial cells (HUVEC); assay: Inhibition of VEGF165-stimulated HUVEC proliferation (3H-thymidine incorporation); assay type: cell-based; conditions: HUVEC starved 16 hours, stimulated with 5 ng/ml VEGF165 and 10 μg/ml heparin, 76 hours incubation, then 16 hours 3H-thymidine
Procedure: Human umbilical endothelial cells (HUVEC) were cultivated in IMDM (Gibco BRL), supplemented with 10% foetal calf serum (FBS) (Sigma), 50 μM of β-mercaptoethanol (Fluka), standard antibiotics, 15 μg/ml of endothelial cell growth factor (ECGS, Collaborative Biomedical Products) and 100 μg/ml of heparin (Sigma) on gelatine-coated culture dishes (0.2% gelatine, Sigma) at 37° C., under 5% CO2 in a water-saturated atmosphere.
In order to investigate the inhibitory activity of the compounds according to the invention the cells were starved for 16 hours, i.e. kept in culture medium without growth factors (ECGS+heparin). The cells were detached from the culture dishes using trypsin/EDTA and washed once in serumontaining medium. Then they were seeded out in amounts of 2.5×10^3 cells per well.
The proliferation of the cells was stimulated with 5 ng/ml of VEGF165 (vascular endothelial growth factor; H. Weich, GBF Braunschweig) and 10 μg/ml of heparin. As a control, 6 wells in each dish were not stimulated.
The compounds according to the invention were dissolved in 100% dimethylsulphoxide and added to the cultures in various dilutions in triplicate, the maximum dimethyl sulphoxide concentration being 0.3%.
The cells were incubated for 76 hours at 37° C., then for a further 16 hours ^3H-thymidine (0.1 μCi/well, Amersham) was added in order to determine the DNA synthesis. Then the radioactively labelled cells were immnobilised on filter mats and the radioactivity incorporated was measured in a β-counter. In order to determine the inhibitory activity of the compounds according to the invention the mean value of the non-stimulated cells was subtracted from the mean value of the factor-stimulated cells (in the presence or absence of the compounds according to the invention).
The relative cell proliferation was calculated as a percentage of the control (HUVEC without inhibitor) and the concentration of active substance which inhibits the proliferation of the cells by 50% (IC50) was determined.

Row | Compound | pIC50
2 | COC(=O)c1ccc2c(c1)NC(=O)/C2=C(\Nc1ccc(CN2CCCCC2)cc1)c1ccccc1 [(c), 3-Z-[1-(4-(piperidin-1-yl-methyl)-anilino)-1-phenyl-methylene]-6-methoxycarbonyl-2-indolinone] | 8.00
3 | COC(=O)c1ccc2c(c1)NC(=O)/C2=C(\Nc1ccc(CN(C)C)cc1)c1ccccc1 [(i), 3-Z-[1-(4-(dimethylaminomethyl)-anilino)-1-phenyl-methylene]-6-methoxycarbonyl-2-indolinone] | 7.52
4 | CNCc1ccc(N/C(=C2\C(=O)Nc3cc(C(=O)OC)ccc32)c2ccccc2)cc1 [(s), 3-Z-[1-(4methylaminomethyl-anilino)-1-phenyl-methylene]-6-methoxycarbonyl-2-indolinone] | 7.40
5 | COC(=O)c1ccc2c(c1)NC(=O)/C2=C(\Nc1ccc(N(CCCN(C)C)S(C)(=O)=O)cc1)c1ccccc1 [(o), 3-Z-[1-(4-(N-(3-dimethylamino-propyl)-N-methylsulphonyl-amino)-anilino)-1-phenyl-methylene]-6methoxycarbonyl-2-indolinone] | 8.00
6 | CCNCc1ccc(N/C(=C2\C(=O)Nc3cc(C(=O)OC)ccc32)c2ccccc2)cc1 [(k), 3-Z-[1-(4-ethylaminomethyl-anilino)-1-phenyl-methylene]-6methoxycarbonyl-2-indolinone] | 7.52
7 | CCOC(=O)c1ccc2c(c1)NC(=O)/C2=C(\Nc1ccc(CN2CCCCC2)cc1)c1ccccc1 [(a), 3-Z-[1-(4-(piperidin-1-yl-methyl)-anilino)-1-phenyl-methylene]-6-ethoxycarbonyl-2-indolinone] | 7.40
8 | NC(=O)c1ccc2c(c1)NC(=O)/C2=C(\Nc1ccc(CN2CCCCC2)cc1)c1ccccc1 [(b), 3-Z-[1-(4-(piperidin-1-yl-methyl)-anilino)-1-phenyl-methylene]-6-carbamoyl-2-indolinone] | 6.46
9 | COC(=O)c1ccc2c(c1)NC(=O)/C2=C(\Nc1ccc(-c2nccn2C)cc1)c1ccccc1 [(l), 3-Z-[1-(4-(1-methyl-imidazol-2-yl)-anilino)-1-phenyl-methylene]-6-methoxycarbonyl-2-indolinone] | 7.00
10 | COC(=O)c1ccc2c(c1)NC(=O)/C2=C(\Nc1ccc(N(CC(=O)N(C)C)C(C)=O)cc1)c1ccccc1 [(j), 3-Z-[1-(4-(N-acetyl-N-dimethylaminocarbonylmethyl-amino)-anilino)-1-phenyl-methylene]-6-methoxycarbonyl-2-indolinone] | 7.70
11 | COC(=O)c1ccc2c(c1)NC(=O)/C2=C(\Nc1ccc(N(C)C(=O)CN(C)C)cc1)c1ccccc1 [(m), 3-Z-[1-(4-(N-dimethylaminomethylcarbonyl-N-methyl-amino)-anilino)-1-phenyl-methylene]-6-methoxycarbonyl-2-indolinone] | 7.70
12 | CCOC(=O)c1ccc2c(c1)NC(=O)/C2=C(\Nc1ccc(N(CCCN(C)C)C(C)=O)cc1)c1ccccc1 [(g), 3-Z-[1-(4-(N-(3-dimethylamino-propyl)-N-acetyl-amino)-anilino)-1-phenyl-methylene]-6-ethoxycarbonyl-2-indolinone] | 8.52
13 | CCOC(=O)c1ccc2c(c1)NC(=O)/C2=C(\Nc1ccc(CN2C(C)CCCC2C)cc1)c1ccccc1 (centres unmarked) [(e), 3-Z-[1-(4-((2,6-dimethyl-piperidin-1-yl)-methyl)-anilino)-1-phenyl-methylene]-6-ethoxycarbonyl-2-indolinone] | 7.30
14 | CCOC(=O)c1ccc2c(c1)NC(=O)/C2=C(\Nc1ccc(CN(C)C)cc1)c1ccccc1 [(d), 3-Z-[1-(4-(dimethylaminomethyl)-anilino)-1-phenyl-methylene]-6-ethoxycarbonyl-2-indolinone] | 7.70
15 | COC(=O)c1ccc2c(c1)NC(=O)/C2=C(\Nc1ccc(N(CCN(C)C)S(C)(=O)=O)cc1)c1ccccc1 [(n), 3-Z-[1-(4-(N-(2-dimethylamino-ethyl)-N-methylsulphonyl-amino)-anilino)-1-phenyl-methylene]-6-methoxycarbonyl-2-indolinone] | 7.70
16 | COC(=O)c1ccc2c(c1)NC(=O)/C2=C(\Nc1ccc(N(CCN(C)C)C(C)=O)cc1)c1ccccc1 [(r), 3-Z-[1-(4-(N-(2-dimethylamino-ethyl)-N-acetyl-amino)-anilino)-1-phenyl-methylene]-6-methoxycarbonyl-2-indolinone] | 8.00
17 | COC(=O)c1ccc2c(c1)NC(=O)/C2=C(\Nc1ccc(N(CC(=O)N(C)C)S(C)(=O)=O)cc1)c1ccccc1 [(p), 3-Z-[1-(4-(N-dimethylaminocarbonylmethyl-N-methylsulphonyl-amino)-anilino)-1-phenyl-methylene]-6-methoxycarbonyl-2-indolinone] | 7.70
18 | COC(=O)c1ccc2c(c1)NC(=O)/C2=C(\Nc1ccc(N(C)C(=O)CCN(C)C)cc1)c1ccccc1 [(q), 3-Z-[1-(4-(N-((2-dimethylamino-ethyl)-carbonyl)-N-methyl-amino)-anilino)-1-phenyl-methylene]-6-methoxycarbonyl-2-indolinone] | 7.70
19 | CCOC(=O)c1ccc2c(c1)NC(=O)/C2=C(\Nc1ccc(N(CCN(C)C)C(C)=O)cc1)c1ccccc1 [(f), 3-Z-[1-(4-(N-(2-dimethylamino-ethyl)-N-acetyl-amino)-anilino)-1-phenyl-methylene]-6-ethoxycarbonyl-2-indolinone] | 8.00
20 | CCOC(=O)c1ccc2c(c1)NC(=O)/C2=C(\Nc1ccc(N(CCN(C)C)S(C)(=O)=O)cc1)c1ccccc1 [(h), 3-Z-[1-(4-(N-(2-dimethylamino-ethyl)-N-methylsulphonyl-amino)-anilino)-1-phenyl-methylene]-6-ethoxycarbonyl-2-indolinone] | 8.00
